Source: patent US8076331B2, “Substituted pyridazine derivatives” (Cephalon, Inc., priority 2008, dated 2011)
pKi: −log10 of the molar value.

Key:
human H3 receptor = target: T1, human H3 receptor (Homo sapiens, UniProt Q9Y5N1); test: Human H3 radioligand binding ([3H]-N-alpha-methylhistamine, CHO cell membranes); settings: membranes of CHO cells stably expressing the human H3 receptor; [3H]-N-alpha-methylhistamine approx. 1 nM
T1 construct: expressed in transfected cells
Protocol: Methods: CHO cells stably expressing the human H3 receptor (GenBank: NM_007232) were harvested and cell pellets were frozen (—80° C.). Cell pellets were resuspended in 5 mM Tris-HCl, pH 7.5 with […] and a cocktail of protease inhibitors (Complete Protease Inhibitior Tablets, Roche Diagnostics). Cells were disrupted using a polytron cell homogenizer and the suspension was centrifuged at 1000×g for 10 minutes at 4° C. The pellet was discarded and the supernatant centrifuged at 40,000×g for 30 min at 4° C. This membrane pellet was washed in membrane buffer containing 50 mM Tris-HCl, pH 7.5 with 0.6 mM EDTA, 5 mM MgCl2 and protease inhibitors, recentrifuged as above and the final pellet resuspended in membrane buffer plus 250 mM sucrose and frozen at −80° C.
Radioligand Binding. Membranes were resuspended in 50 mM Tris HCl (pH 7.4), 5 mM MgCl2, 0.1% BSA. The membrane suspensions (10 μg protein per well) were incubated in a 96 well microtiter plate with [^3H]-N-alpha-methylhistamine (approximately 1 nM final concentration), test compounds at various concentrations (0.01 nM-30 μM) and scintillation proximity beads (Perkin Elmer, FlashBlueGPCR Scintillating Beads) in a final volume of 80 μl for 4 hours at room temperature, protected from light. Non-specific binding was determined in the presence of 10 μM clobenpropit. Radioligand bound to receptor, and therefore in proximity to the scintillation beads, was measured using a MicroBeta scintillation counter.

T1 sequence (Q9Y5N1 whole entry): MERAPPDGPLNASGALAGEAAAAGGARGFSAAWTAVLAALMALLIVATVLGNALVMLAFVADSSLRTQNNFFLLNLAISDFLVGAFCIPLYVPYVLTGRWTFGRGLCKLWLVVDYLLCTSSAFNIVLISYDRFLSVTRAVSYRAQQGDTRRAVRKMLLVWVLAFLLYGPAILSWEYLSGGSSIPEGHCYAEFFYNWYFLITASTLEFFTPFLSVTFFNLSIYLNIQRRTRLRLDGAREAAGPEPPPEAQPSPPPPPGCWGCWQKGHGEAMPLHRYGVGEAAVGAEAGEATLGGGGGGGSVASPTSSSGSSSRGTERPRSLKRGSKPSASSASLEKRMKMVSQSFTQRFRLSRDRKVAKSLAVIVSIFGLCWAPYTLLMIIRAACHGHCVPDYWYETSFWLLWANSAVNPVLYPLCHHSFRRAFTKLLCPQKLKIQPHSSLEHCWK

melting point [°C] | pKi (human H3 receptor) | Compound
122 | 7.00 to 7.29 | CSc1ccc(-c2ccc(OCCCN3CCCCC3)cc2)nn1 [Example 31, 3-Methylsulfanyl-6-[4-(3-piperidin-1-yl-propoxy)phenyl]pyridazine]
132 to 134 | > 7.30 | C[C@@H]1CCCN1CCCOc1ccc(-c2nnc(Cl)c3c2C2CCC3CC2)cc1 [Example 18, 3-Chloro-6-{4-[3-((R)-2-methyl-pyrrolidin-1-yl)-propoxy]-phenyl}-4,5-diaza-tricyclo[6.2.2.0*2,7*]dodeca-2(7),3,5-triene]
140 | > 7.30 | Clc1ccc(-c2ccc(OCCCN3CCCCC3)cc2)nn1 [Example 2, 3-Chloro-6-[4-(3-piperidin-1-yl-propoxy)-phenyl]pyridazine]
114 | > 7.30 | C[C@@H]1CCCN1CCCOc1ccc(-c2ccc(OCc3ccccc3)nn2)cc1 [Example 21, 3-Benzyloxy-6-{4-[3-((R)-2-methyl-pyrrolidin-1-yl)-propoxy]phenyl}pyridazine]
180 | > 7.30 | C[C@@H]1CCCN1CCCOc1ccc(-c2ccc(-c3cc4ccccc4o3)nn2)cc1 [Example 41, 3-Benzofuran-2-yl-6-{4-[3-((R)-2-methyl-pyrrolidin-1-yl)-propoxy]-phenyl}pyridazine]
119 | > 7.30 | C[C@@H]1CCCN1CCCOc1ccc(-c2ccc(Oc3cncc(Cl)c3)nn2)cc1 [Example 19]
175 to 180 | > 7.30 | C[C@@H]1CCCN1CCCOc1ccc(-c2ccc(N3CCCC3)nn2)cc1 [Example 5, 3-{4-[3-((R)-2-Methyl-pyrrolidin-1-yl)-propoxy]-phenyl}-6-pyrrolidin-1-yl-pyridazine]
85 | > 7.30 | Cc1cc(OCCCN2CCCCC2)ccc1-c1ccc(Cl)nn1 [Example 12, 3-Chloro-6-[2-methyl-4-(3-piperidin-1-yl-propoxy)phenyl]pyridazine]
